# Test results as given in patent US20220088144A1, “SGLT-2 INHIBITORS OR IL-1R ANTAGONISTS FOR REDUCTION OF HYPOGLYCAEMIA AFTER BARIATRIC SURGERY” (UNIVERSITÄTSSPITAL BASEL, priority 2019, published 2022).
# Key:
# [1] = tested on: patients after bariatric surgery with post-prandial hypoglycaemia; assay: Clinical symptom scores during mixed-meal test (Edinburgh Hypoglycemia Scale, Sigstad Score, Stanford Sleepiness Scale); format: in vivo, human; set-up: key to Edinburgh Hypoglycemia Scale score, timepoint 180 min / Edinburgh Hypoglycemia Scale score, timepoint −120 min / Edinburgh Hypoglycemia Scale score, timepoint 0 min / Edinburgh Hypoglycemia Scale score, timepoint 60 min / Edinburgh Hypoglycemia Scale score, timepoint 90 min / Edinburgh Hypoglycemia Scale score, timepoint 120 min / Edinburgh Hypoglycemia Scale score, timepoint 150 min: 0 (=no symptoms); 3 (=severe symptoms); a = sweating; b = palpitations; c = shaking; d = hunger; e = confusion; f = drowsiness; g = odd behaviour; h = speech difficulty; i = incoordination; settings: for Edinburgh Hypoglycemia Scale score, timepoint 0 min / Edinburgh Hypoglycemia Scale score, timepoint 60 min / Edinburgh Hypoglycemia Scale score, timepoint 90 min / Edinburgh Hypoglycemia Scale score, timepoint 120 min / Edinburgh Hypoglycemia Scale score, timepoint 150 min / Edinburgh Hypoglycemia Scale score, timepoint 180 min / Edinburgh Hypoglycemia Scale score, timepoint −120 min: per patient and visit; for Edinburgh Hypoglycemia Scale score, timepoint 60 min: 60 min after meal; for Edinburgh Hypoglycemia Scale score, timepoint 90 min: 90 min after meal; for Edinburgh Hypoglycemia Scale score, timepoint 120 min: 120 min after meal; for Edinburgh Hypoglycemia Scale score, timepoint 150 min: 150 min after meal; for Edinburgh Hypoglycemia Scale score, timepoint 180 min: 180 min after meal; for model coefficient (treatment vs placebo) for occurrence of Edinburgh composite score ≥6: headed FIG. 11a, generalized linear additive mixed effect model; for Edinburgh Hypoglycemia Scale score, timepoint −120 min: −120 min relative to meal (time of oral dosing)
# Procedure: The primary outcome in this study is the change of post-prandial hypoglycaemia after treatment with empagliflozin (Jardiance®) or anakinra (Kineret®) compared to placebo. This was assessed by blood glucose measurements (capillary POCT measurements and plasma glucose) as well as clinical scoring systems (Edinburgh Hypoglycaemia Scale (Deary et al. Diabetologia 1993; 36(8): 771-7), Mixed-Meal-Test (Wiesli et al. Eur J Endocrinol 2005; 152(4): 605-10.) Stanford sleepiness scale).
# The secondary objectives are to evaluate whether treatment of empagliflozin (Jardiance®) or anakinra (Kineret®) have effects on the following aspects: • level of insulin secretion and sensitivity • levels of GLP-1, glucagon and C-peptide • levels of IL-6; IL-1Ra, CRP • scores in Edinburgh Hypoglycaemia Scale (clinical score for assessment of hypoglycemia), Stanford Sleepiness Scale (clinical score of assessment of sleepiness) as well as Sigstad Score (clinical score for early and late dumping symptoms) • Length of time and amount of glucose needed for restoring normoglycemia.
# Statistical analysis for this proof-of-concept translational clinical trial was done on a per-protocol basis. Sample size was based on practical considerations due to the lack of pre-existing data for this intervention. All analyses are to be considered exploratory. Analysis of continuous dependent outcome variables (e.g. glucose, insulin, c-peptide, GLP-1, glucagon, insulin secretion index and sensitivity, IL-1p, IL-6, IL-8, TNFα), was done using linear mixed effect models fit by maximum likelihood. Analysis of the binary dependent outcome variables occurrence of severe hypoglycemia requiring glucose rescue and occurrence of composite score ≥6 on the Edinburgh Hypoglycemia Scale was done using a generalized linear additive mixed effect model fit by maximum likelihood (Laplace approximation). Models were fit including fixed effects for categorical variables such as gender, the occurrence of hypoglycemia, treatment and in case of values measured in cell culture supernatants, activation status (non-stimulated, LPS-simulated), as well as the continuous variables time and BMI as indicated. A random-effect for patient was equally included (random by-subject intercepts, fixed slopes). Models were computed using the R “Ime4” and “gamm4” packages. • Individual models were visually assessed for the presence of heteroscedasticity, collinearity and normality of residuals. […] For visual representation, log-transformed outcome values were back-transformed to their initial values.
# bulk monocytes = assay: RNA sequencing of monocytes isolated from treated patients; set-up: species or system human; settings: treatment compared to placebo
# Procedure: Following the inventors' hypothesis of an overactivation of the innate immune system in patients experiencing post-bariatric hypoglycemia, they assessed transcriptional changes in innate immune cells from the inventors' patient population using an unbiased RNA sequencing approach. Therefore, the inventors isolated monocytes from peripheral blood sampled immediately before and 60 minutes (i.e. before rescue glucose application when needed) after ingestion of the mixed-meal on all three treatment days.
# Blood samples were taken before and 60 minutes after meal intake. Due to scheduling conflicts, samples from two patients could not be processed. These samples are thus assumed to be missing at random. Of note, samples from patient 3 (sleeve gastrectomy) had already been processed for RNA sequencing before the final change of protocol. Sequencing data obtained from this patient were thus kept for the purpose of these analyses. Peripheral blood mononuclear cells were obtained by Ficoll density gradient centrifugation (Lymphoprep Fresenius Kabi, Norway). For 9 out of 11 patients, an additional step was added after density gradient centrifugation to pre-enrich monocytes by negative selection with CD3 human MicroBeads (#130-050-101; Miltenyi Biotec). The obtained cellular monocyte fractions were then incubated with FC-Block for 15 minutes at room temperature [(Human FcR TruStain FcX (Biolegend) REF 422302, compatible with flow cytometric staining with anti-human CD16 (clone 3G8)], and subsequently labeled with the following antibodies: APC Mouse anti-Human CD3 [HIT3a alpha] (#555342; BD Biosciences), FITC Mouse Anti-Human CD19 [HIB19 RUO] (#560994; BD Biosciences), PE-Cy5 Mouse Anti-Human CD56 [B159 RUO] (#560842; BD Biosciences), PE Mouse Anti-Human CD16 [3G8 RUO] (#560995; BD Biosciences), APC-Cy7 Mouse Anti-Human CD14 [MφP-9 RUO] (#561709; BD Biosciences).
# Cells were then further enriched into the three monocyte subsets by fluorescence-activated cell sorting on a BD FACS-Aria III. Classical monocytes were defined as: single, live, CD56− CD19−CD3−CD14+CD16−, Intermediate monocytes were defined as: single, live CD56−CD19− CD3−CD14+CD16+ and non-classical monocytes were defined as: single, live CD56−CD19− CD3−CD14−CD16+. Bulk monocytes were defined as a combination-gate of the three subsets. For a representative example of the gating strategy see FIG. 13.
# Total RNA was extracted from 500'000 bulk monocytes, isolated as described above using the Nucleo Spin RNA II Kit (Machery Nagel). Integrity of isolated total RNA was assessed on a 2100 Bioanalyzer System (Agilent Technologies, USA) with the Agilent RNA 6000 Pico Kit as recommended by the manufacturer. RNA concentration was determined with the Quant-iT RiboGreen RNA Assay Kit (Thermo Fisher Scientific, USA).
# Purification of mRNA by poly(A)-selection, mRNA fragmentation and cDNA library preparation for RNA-Seq were performed using the TruSeq Stranded mRNA HT Sample Preparation Kit (Illumina, USA) according to the manufacturer's protocol. Before sequencing, quality and quantity analysis of prepared cDNA libraries were done on a Fragment Analyzer System (Advanced Analytical Technologies, USA). cDNA libraries were sequenced as single-end reads with 125 cycles on a HiSeq2500 sequencing system (Illumina, USA) at the Genomics Facility Basel. Of note, 2 samples failed during library preparation.
# Initial quality checks were performed with FastQC version 0.11.4 (www.bioinformatics.babraham.ac.uk/projects/fastqc/). Adaptor clipping and quality-trimming of sequences was performed using Trimmomatic version 0.36 (Bolger, A. M., Lohse, M., and Usadel, B. (2014). Bioinformatics 30, 2114-2120) and reads were aligned to the GRCh38 reference genome using the splice aware aligner STAR version 2.7.0 (Dobin, A., et al. (2013). Bioinformatics 29, 15-21). Count-tables were produced using HTSeq version 0.6.1 (Anders, S., Pyl, P. T., and Huber, W. (2015). Bioinformatics 31, 166-169). […]
Compound,"Edinburgh Hypoglycemia Scale score, timepoint 0 min [1]","Edinburgh Hypoglycemia Scale score, timepoint 60 min [1]","Edinburgh Hypoglycemia Scale score, timepoint 90 min [1]","Edinburgh Hypoglycemia Scale score, timepoint 120 min [1]","Edinburgh Hypoglycemia Scale score, timepoint 150 min [1]","Edinburgh Hypoglycemia Scale score, timepoint 180 min [1]",model coefficient (treatment vs placebo) for occurrence of Edinburgh composite score ≥6 [1],"Edinburgh Hypoglycemia Scale score, timepoint −120 min [1]",number of downregulated genes in monocytes (bulk monocytes),number of upregulated genes in monocytes (bulk monocytes),total genes differentially regulated in monocytes (bulk monocytes)
OC[C@H]1O[C@@H](c2ccc(Cl)c(Cc3ccc(O[C@H]4CCOC4)cc3)c2)[C@H](O)[C@@H](O)[C@@H]1O [empagliflozin],0,0,0,0,0,0,−2.429,0,0,14,14
"anakinra: CAS NO 143090-92-0; recombinant, non-glycosylated form of the human interleukin-1 receptor antagonist (IL-1 Ra), 153 amino acids",0,0,0,0,0,0,−2.429,0,71,163,234
